Measured values taken from US4645840A, “Intermediates for preparing 1,2-dihydropyrido[3,4-b]-pyrazines” (Southern Research Institute, priority 1986, dated 1987).
Where two headings read alike, the source gives them in different places.

How the values were obtained:
several neoplasms = details: cited from earlier work
[1] = tested on: lymphoid leukemia L1210 cells; test: Inhibition of proliferation of cultured lymphoid leukemia L1210 cells; assay type: cell-based; details: Mus musculus
Description: The 1,2-dihydropyrido[3,4-b]pyrazines of this invention are powerful inhibitors of the proliferation of cultured lymphoid luekemia L1210 cells as shown in Table IV.
(a) Concentration of agent that inhibits proliferation of cultured
lymphoid leukemia L1210 cells to 50% control growth during 48 hours. G. P
Wheeler, B. J. Bowdon, J. A. Werline, D. J. Adamson and C. Temple, Jr.,

[2] = tested on: lymphoid leukemia L1210 cells; test: Mitotic index of cultured lymphoid leukemia L1210 cells; assay type: cell-based
[3] = tested on: lymphocytic leukemia P388 cells; test: Activity against lymphocytic leukemia P388 (10^6 tumor cell implant, i.p.) in mice; assay type: in vivo; details: P388, 10^6 cells i.p.
Excerpt: (c) Lymphocytic leukemia P388. R. I. Geran, N. H. Greenbert, M. M.
MacDonald, A. M. Schumacker, and B. J. Abbott, Cancer Chemother. Rep., 3

[4] = tested on: Vincristine-resistant line of P388; test: Activity against vincristine-resistant line of P388 in mice; assay type: in vivo; details: for activity against P388 cells resistant to vincristine: in mice
Excerpt: (g) Vincristineresistant line of P388. L. J. Wilkoff and E. A. Dulmadge, […]

[5] = tested on: Methotrexate-resistant line of P388 (tumor P7); test: Activity against methotrexate-resistant line of P388 in mice; assay type: in vivo; details: methotrexate-resistant P388, schedule day 1, 100 mg/kg
Description: (e) Methotrexateresistant line of P388 (designated tumor P7 by the Drug
Evaluation Branch, National Cancer Institute). In mice with 10^6 cell
implant (IP), methotrexate at a dose of 2 mg/kg on the qd 1-9 schedule
gave a 2log cell kill against the sensitive line of P388 and a 2log
increase in cells against the methotrexateresistant line of P388.

KB cell = details: cited from earlier work
[6] = tested on: lymphocytic leukemia P388 cells; details: sensitive line of P388, 10^6 cell implant IP, 2 mg/kg, qd 1-9; cited from earlier work
[7] = tested on: Methotrexate-resistant line of P388 (tumor P7); details: methotrexate-resistant line of P388, 10^6 cell implant IP, 2 mg/kg, qd 1-9; cited from earlier work
[8] = L1210, inhibits proliferation to 50% control growth during 48 hours (footnote a), read-out: ID50 (the source's name)

For CCOC(=O)Nc1cc2c(c(N)n1)N=C(CN(C)c1ccccc1)CN2 [NSC-181928], the “activity against several neoplasms” value (several neoplasms) is given as “active against several neoplasms”.
For CCOC(=O)Nc1cc2c(c(N)n1)N=C(CN(C)c1ccc(C(=O)OC)cc1)CN2 [R = 4-CH3 O2 CC6 H4 N(CH3)CH2 (R4 = H), reference compound], the IC50 [1, 8] was 58 nM, the “Mitotic Index 12 h” value ([2]; 0.1 μM) was 0.44 and the “Mitotic Index 12 h” value ([2]; 0.3 μM) was 0.61. The “% ILS” value ([3]; schedule days 1-9, 25 mg/kg) was 30%.
With CCOC(=O)Nc1cc2c(c(N)n1)N=C(CN(C)c1ccc(OC)cc1)C(C)N2 (centres unmarked) [R = 4-CH3 OC6 H4 N(CH3)CH2 (R4 = CH3), Ethyl 5-Amino-1,2-dihydro-3-[[N-(4-methoxyphenyl)-N-methylamino]methyl]-2-methylpyrido[3,4-b]pyrazine-7-carbamate] the IC50 [1, 8] was 5.5 nM, the “Mitotic Index 12 h” value ([2]; 0.3 μM) was 0.66 and the “% ILS” value ([3]; schedule days 1-5, 48 mg/kg) was 53%.
For CCOC(=O)Nc1cc2c(c(N)n1)N=C(CN(C)c1ccc(OC)cc1)CN2 [R = 4-CH3 OC6 H4 N(CH3)CH2 (R4 = H)], the IC50 [1, 8] was 7.9 nM, the “Mitotic Index 12 h” value ([2]; 0.03 μM) was 0.64 and the “Mitotic Index 12 h” value ([2]; 0.3 μM) was 0.49. For the same compound, the “% ILS” value ([3]; schedule day 1, 25 mg/kg) was 133%, the “% ILS” value ([3]; schedule day 1, 50 mg/kg) was 80% and the “activity against P388 cells resistant to vincristine” value [4] was “active in mice against P388 cells that were resistant to vincristine”. The “% ILS” value ([4]; vincristine-resistant P388, schedule day 1, 25 mg/kg) was 150%.
In the case of CCOC(=O)Nc1cc2c(c(N)n1)N=C(CN(C)c1ccc(Cl)cc1)CN2 [R = 4-ClC6 H4 N(CH3)CH2 (R4 = H)], the IC50 [1, 8] is reported as 14.5 nM, the “Mitotic Index 12 h” value ([2]; 0.03 μM) is reported as 0.71 and the “% ILS” value ([3]; schedule day 1, 100 mg/kg) is reported as 65%.
In the case of CCOC(=O)Nc1cc2c(c(N)n1)N=C(CCc1ccccc1)CN2 [R = C6 H5 CH2 CH2 (R4 = H), Ethyl 5-Amino-1,2-dihydro-3-(2-phenylethyl)pyrido(3,4-b)pyrazine-7-carbamate], the IC50 [1, 8] is reported as 13 nM, the “Mitotic Index 24 h” value ([2]; 0.3 μM) is reported as 0.33 and the “% ILS” value ([3]; schedule day 1, 100 mg/kg) is reported as 29%.
In the case of CCOC(=O)Nc1cc2c(c(N)n1)N=C(CN(C)c1ccccc1)CN2 [R = C6 H5 N(CH3)CH2 (R4 = H), Ethyl 5-Amino-1,2-dihydro-3-[(N-methyl-N-phenyl)aminomethyl]pyrido[3,4-b]pyrazine-7-carbamate], the IC50 [1, 8] is reported as 8.4 nM, the “Mitotic Index 12 h” value ([2]; 0.03 μM) is reported as 0.77 and the “Mitotic Index 24 h” value ([2]; 0.3 μM) is reported as 0.80. For the same compound, the “% ILS” value ([3]; schedule day 1, 100 mg/kg) was 114%, the “% ILS” value [5] was 66% and the “activity against P388 cells resistant to vincristine” value [4] was “active in mice against P388 cells that were resistant to vincristine”. For the same compound, the “% ILS” value ([4]; vincristine-resistant P388, schedule day 1, 67 mg/kg) was 90%.
CC[C@]1(O)C[C@H]2CN(CCc3c([nH]c4ccccc34)[C@@](C(=O)OC)(c3cc4c(cc3OC)N(C=O)[C@H]3[C@@](O)(C(=O)OC)[C@H](OC(C)=O)[C@]5(CC)C=CCN6CC[C@]43[C@@H]65)C2)C1 [Vincristine, reference compound] showed an IC50 ([1]; L1210, 48 h, read-out: ID50) of 1 nM.
For CCOC(=O)Nc1cc2c(c(N)n1)N=C(CN(C)c1ccc(C(=O)OC)cc1)CN2 [drawing 5], the “cytotoxicity in the KB cell culture screen” value (KB cell) is given as “showed cytotoxicity in the KB cell culture screen”.
In the case of CN(Cc1cnc2nc(N)nc(N)c2n1)c1ccc(C(=O)N[C@@H](CCC(=O)O)C(=O)O)cc1 [methotrexate], the log cell kill [6] is given as 2 log and the “log increase in cells” value [7] is given as 2 log.
